US10609906B2, “Apparatus and method of using a simulated skin substrate for testing insect repellants” (S. C. JOHNSON & SON, INC., priority 2016, dated 2020)
One block for each compound: values may come before it.

Legend:
mosquitoes [1] = experiment: arm-in-cage method with human research participants, laboratory, complete protection time; format: in vivo
Description: When comparing the CPT data of skin-applied insect repellents, such as DEET, using the human surrogate apparatus 100 to the CPT data of skin-applied insect repellents obtained using human research participants via the arm-in-cage method (See Product Performance Test Guidelines OPPTS 810.3700: Insect Repellents to be Applied to Human Skin, United States Environmental Protection Agency, EPA 712-10-001, Jul. 7, 2010), data from both groups is very similar to each other as may be seen with reference to FIG. 5 in a controlled environment, e.g., a laboratory. Further, Table 1 illustrates the average CPT for the two methods based on differing weight percentages of the active ingredient DEET of the insect repellent, as well as the […] (“±SE”) at each weight percentage for the two groups. As may be seen, the differences between the experiments using human research participants via the arm-in-cage method and the experiments using the human surrogate apparatus 100 are statistically negligible.

wild mosquitoes = experiment: portable human surrogate apparatus 200, outdoor field test, complete protection time; format: in vivo; settings: for CPT data with human surrogate apparatus 200 compared with voluntary human subjects group: outdoor field test
Protocol: The human surrogate apparatus of FIG. 1 is intended for use in a laboratory or controlled environment. Preferably, the controlled environment has a temperature range of between about 24° C. to about 30° C. and a range of relative humidity of between about 40% to about 60%. In contrast, FIGS. 2 and 3 illustrate an embodiment of a human surrogate apparatus 200 for testing the efficacy of a skin-applied insect repellent in the field. By fashioning the human surrogate apparatus 200 to be portable, the apparatus may be used in any number of real world environments. The human surrogate apparatus 200 therefore provides the advantage of similar testing efficacy as human testing, but without exposure to mosquitoes or other insects found in the field.
With reference still to FIGS. 2 and 3, the human surrogate apparatus 200 is disposed in an outdoor environment, with an identified population of biting insects. The portable human surrogate apparatus 200 is provided with a housing 202 having a power supply line 204 connected thereto. In some embodiments, a power supply 206 is located remotely from the housing 202 to provide power to the human surrogate apparatus 200. Alternatively, or in addition, a local power supply is provided within or attached to the housing 202. In such an embodiment, the power supply line 204 may be omitted, provided within the housing 202, or otherwise fashioned differently within the housing 202 to allow energy to reach electrical components thereof
With reference to FIG. 3, the human surrogate apparatus 200 includes a heater 208 in electrical communication with the power supply 206. In the present embodiment, the heater 208 is a silicone-rubber heating blanket, manufactured by BriskHeat Corporation, Columbus, OH. A non-collagen based, non-biological substrate 210 is also provided and is exposed to the ambient environment. In certain embodiments the non-collagen based, non-biological substrate 210 may be synthetic.
In the present embodiment, the substrate 210 is securely fastened to the portable human surrogate apparatus 200 by magnetic strips 212, or may be fastened by any other suitable means. In some embodiments a temperature buffering device 214 is provided beneath the substrate 210, which assists in transmitting heat from the heater 208 and maintains the substrate 210 at a predetermined temperature. In the present embodiment, the temperature buffering device 214 is a water bath, enclosed in a container 220, which is made of materials that prevent water leakage and that transmit heat at the same time. Moreover, the portable human surrogate apparatus 200 is connected to a CO2 source 216, which may be remote from the housing 202, attached to the housing 202, or otherwise retained within the housing 202. In the present embodiment, the CO2 source 216 delivers CO2 at a rate of between about 400 mL/min (14 oz/min) to about 600 mL/min (20.3 oz/min).
It has also been experimentally determined that the human surrogate apparatuses described herein perform consistently in a controlled environment, e.g., a laboratory with predetermined and controllable conditions, and in an uncontrolled environment, e.g., in an outdoor field test. With reference to FIG. 8 and Table 3, the CPT in hours obtained from testing 7% weight percentage DEET repellent efficacy in the laboratory and obtained from the field is similar.
Similarly, for testing substance picaridin (referring to FIGS. 11A-11C) and PMD (referring to FIGS. 12A-12C), the CPT data (including average CPT) in the human surrogate apparatus 200 group shares overlapping confidence intervals with the CPT data in the field test group using the voluntary human subjects.

adult female mosquitoes = experiment: human surrogate apparatus 100 (Vitro-Skin skin substitute substrate), laboratory, complete protection time; format: in vivo, Aedes aegypti; settings: for Predicted percent DEET concentration (±SE): inverse prediction from model; for CPT data with human surrogate apparatus 100 compared with arm-in-cage group: 10% by weight, laboratory
Description: With reference to FIG. 4, a method of using the human surrogate apparatus 100 is explained.
In certain embodiments, different test substances contain different concentrations of testing insect repellent. The concentration of testing insect repellent can be measured by weight percentage or by volume percentage of the testing insect repellent diluted in ethanol or in any other suitable diluents. […] Further, in the present embodiment, regardless of the concentration of the repellent, the combined mass of the repellent and ethanol is about 0.19 g. In other experiments, the combined mass of the repellent(s) and the diluent(s) is greater or less than about 0.19 g, but similarly stays the same independent of the concentration of the repellent. With different sets of experiments, the amount of skin-applied test substance used in the testing is based on the size of the substrate and the properties of different testing insect repellents, such as the active ingredient dosage.
This cycle of exposure-withdrawal-exposure is repeated until one or more biting insects land on the treated substrate for equal to or longer than 2 seconds.

mosquitoes [2] = experiment: arm-in-cage method with human research participants, laboratory, complete protection time; format: in vivo; settings: inverse prediction from model
[3] = surface wetting of insect repellent actives on hydrated skin substitute substrate; format: physicochemical; settings: for surface wetting on skin substitute substrate: ethanol solutions containing 5%, 10%, 15%, and 25% of the active; for surface wetting on hydrated skin substitute substrate: insect repellant active as such
Description: Additionally, the surface wetting of insect repellents on the skin substitute substrate should be close to the surface wetting of insect repellents on human skin. The term “wetting” refers to the ease with which a substance can intimately contact and spread over a given substrate. There are a variety of forces (ionic, static, polar, van der Waals etc.) acting between the substance and the substrates that ensure good bonding. Good wetting provides a larger area of contact where these forces may act. Consequently, good wetting is crucial for good bond formation. […] Complete wetting is achieved when the contact angle between the liquid and the solid surface is approaching or is substantially zero. […] The interaction of ethanol solutions containing 5%, 10%, 15%, and 25% of each aforementioned active substance and the tested skin substitute substrate was also tested. […] Due to this degree of wetting between the insect repellent active and the tested skin substitute substrate, the desired bonding between the active and the tested skin substitute substrate is achieved. As a result, the insect repellent remains on the skin substitute substrate for a duration similar to that of human skin.

[4] = 7% DEET in EtOH, Field, human surrogate apparatus
[5] = 7% DEET in EtOH, Lab, human surrogate apparatus
[6] = 7% DEET in ethanol, Human Skin Surrogate
[7] = 15% DEET in ethanol, Human Skin Surrogate
[8] = 20% DEET in ethanol, Human Skin Surrogate
[9] = 25% DEET in ethanol, Human Skin Surrogate
[10] = 30% DEET in ethanol, Human Skin Surrogate

surface wetting on skin substitute substrate [3]: substantially complete wetting
surface wetting on hydrated skin substitute substrate [3]: substantially complete wetting
SMILES: CCN(CC)C(=O)c1cccc(C)c1 [DEET, N,N-Diethyl-3-methylbenzamide]
Complete protection time (median) (mosquitoes [1]; 7% DEET in ethanol): 2.3 h
Complete protection time Mean ± SE (mosquitoes [1]; 7% DEET in ethanol): 2.5 ± 0.7 h
Complete protection time (median) (mosquitoes [1]; 15% DEET in ethanol): 3.5 h
Complete protection time Mean ± SE (mosquitoes [1]; 15% DEET in ethanol): 3.9 ± 1.5 h
Complete protection time (median) (mosquitoes [1]; 20% DEET in ethanol): 3.8 h
Complete protection time Mean ± SE (mosquitoes [1]; 20% DEET in ethanol): 4.9 ± 2.1 h
Complete protection time (median) (mosquitoes [1]; 25% DEET in ethanol): 6.8 h
Complete protection time Mean ± SE (mosquitoes [1]; 25% DEET in ethanol): 6.5 ± 1.4 h
Complete protection time (median) (mosquitoes [1]; 30% DEET in ethanol): 6.6 h
Complete protection time Mean ± SE (mosquitoes [1]; 30% DEET in ethanol): 6.6 ± 0.7 h
Complete protection time (median) (wild mosquitoes; [4]): 2.0 h
Complete protection time Mean ± SE (wild mosquitoes; [4]): 2.0 ± 0.4 h
Complete protection time Range (wild mosquitoes; [4]): 1.5 to 2.5 h
CPT data with human surrogate apparatus 200 compared with voluntary human subjects group (wild mosquitoes): not significantly different
Complete protection time (median) (adult female mosquitoes; [5]): 2.0 h
Complete protection time Mean ± SE (adult female mosquitoes; [5]): 2.2 ± 0.9 h
Complete protection time Range (adult female mosquitoes; [5]): 1.0 to 3.5 h
Complete protection time (median) (adult female mosquitoes; [6]): 2.0 h
Complete protection time Mean ± SE (adult female mosquitoes; [6]): 2.2 ± 0.9 h
Complete protection time (median) (adult female mosquitoes; [7]): 3.3 h
Complete protection time Mean ± SE (adult female mosquitoes; [7]): 3.6 ± 1.0 h
Complete protection time (median) (adult female mosquitoes; [8]): 5.3 h
Complete protection time Mean ± SE (adult female mosquitoes; [8]): 4.9 ± 2.1 h
Complete protection time (median) (adult female mosquitoes; [9]): 6.5 h
Complete protection time Mean ± SE (adult female mosquitoes; [9]): 6.3 ± 1.1 h
Complete protection time (median) (adult female mosquitoes; [10]): 7.0 h
Complete protection time Mean ± SE (adult female mosquitoes; [10]): 6.5 ± 2.3 h
Predicted percent DEET concentration (±SE) (adult female mosquitoes; for complete protection time 1 h, Human Skin Surrogate): 3.81 ± 1.72%
Predicted percent DEET concentration (±SE) (adult female mosquitoes; for complete protection time 2 h, Human Skin Surrogate): 8.17 ± 1.16%
Predicted percent DEET concentration (±SE) (adult female mosquitoes; for complete protection time 3 h, Human Skin Surrogate): 11.92 ± 1.04%
Predicted percent DEET concentration (±SE) (adult female mosquitoes; for complete protection time 4 h, Human Skin Surrogate): 15.71 ± 1.13%
Predicted percent DEET concentration (±SE) (adult female mosquitoes; for complete protection time 5 h, Human Skin Surrogate): 20.00 ± 1.21%
Predicted percent DEET concentration (±SE) (adult female mosquitoes; for complete protection time 6 h, Human Skin Surrogate): 25.55 ± 1.58%
Predicted percent DEET concentration (±SE) (mosquitoes [2]; for complete protection time 1 h): 1.61 ± 1.69%
Predicted percent DEET concentration (±SE) (mosquitoes [2]; for complete protection time 2 h): 6.15 ± 0.94%
Predicted percent DEET concentration (±SE) (mosquitoes [2]; for complete protection time 3 h): 10.07 ± 0.88%
Predicted percent DEET concentration (±SE) (mosquitoes [2]; for complete protection time 4 h): 14.08 ± 1.15%
Predicted percent DEET concentration (±SE) (mosquitoes [2]; for complete protection time 5 h): 18.70 ± 1.46%
Predicted percent DEET concentration (±SE) (mosquitoes [2]; for complete protection time 6 h): 24.85 ± 2.64%

surface wetting on skin substitute substrate [3]: substantially complete wetting
surface wetting on hydrated skin substitute substrate [3]: substantially complete wetting
SMILES: CC1CCC(C(C)(C)O)C(O)C1 (stereo not shown) [PMD, para-menthane-3,8-diol]
CPT data with human surrogate apparatus 200 compared with voluntary human subjects group (wild mosquitoes): No statistically significant difference
CPT data with human surrogate apparatus 100 compared with arm-in-cage group (adult female mosquitoes): not significantly different

SMILES: CCC(C)OC(=O)N1CCCCC1CCO (stereo not shown) [picaridin, 2-(2-hydroxyethyl)-1-piperidinecarboxylic acid 1-methylpropyl ester]
CPT data with human surrogate apparatus 200 compared with voluntary human subjects group (wild mosquitoes): No statistically significant difference
CPT data with human surrogate apparatus 100 compared with arm-in-cage group (adult female mosquitoes): within the range of CPT data points of the group employing the arm-in-cage method
surface wetting on skin substitute substrate [3]: substantially complete wetting
surface wetting on hydrated skin substitute substrate [3]: substantially complete wetting
